The values that follow are results of earlier work, collected in paper PMC5587309, “Involvement of arginine 878 together with Ca^2+ in mouse aminopeptidase A substrate specificity for N-terminal acidic amino-acid residues” (PLoS ONE, 2017).

In this data set the target is APA. On the set-up: method as in PMID 7915326. The settings on record: read-out: inhibitory potency on APA; cited from earlier work.

For `N[C@H](CS)CCS(=O)(=O)O` [EC33, (3S)‐3‐amino‐4‐sulfanylbutane‐1‐sulfonic acid], the Ki is 100 nM.
